Where a name gives a salt, the structure may show the parent alone.

Take `O=S(=O)(c1ccccc1)N1CCOc2c(N3CCNCC3)cc(Cl)cc21` (as salt: hydrochloride): the melting point – broadly, the temperature, or range, at which the solid turns liquid – was 202 to 205 °C.

The molecule `Cc1cc(N2CCNCC2)c2c(c1)N(S(=O)(=O)c1ccc(Cl)cc1)CCO2` (as salt: hydrochloride) registered a melting point of 147.9 to 152.9 °C.

Take `CS(=O)(=O)Nc1cccc(S(=O)(=O)N2CCOc3c(N4CCNCC4)cccc32)c1` [Compound 20, N-[3-(8-Piperazin-1-yl-2,3-dihydro-benzo[1,4]oxazine-4-sulfonyl)-phenyl]-methanesulfonamide]: the melting point was 158.5 to 163.5 °C.

The values are drawn from patent publication US8377931B2, “Benzoxazine derivatives and uses thereof” (Roche Palo Alto LLC, priority 2002, dated 2013).
